These results are taken from patent US10150743B2, “Carboxylic acid compounds” (priority 2012, dated 2018).

For one assay, the target named is human TLR7 (Homo sapiens (Human), UniProt Q9NYK1). Description: Human TLR7 assay (SEAP reporter in HEK293). It is filed as cell-based. The settings on record: SEAP induction, overnight incubation at 37° C., 0.1% DMSO; read-out: TLR7 (pEC50) (converted). An excerpt: Recombinant human TLR7 was stably expressed in a HEK293 cell line already stably expressing the pNiFty2-SEAP reporter plasmid; integration of the reporter gene was maintained by selection with the antibiotic zeocin. The most common variant sequence of human TLR7 (represented by the EMBL sequence AF240467) was cloned into the mammalian cell expression vector pUNO and transfected into this reporter cell-line. Transfectants with stable expression were selected using the antibiotic blasticidin. In this reporter cell-line, expression of secreted alkaline phosphatase (SEAP) is controlled by an NFkB/ELAM-1 composite promoter comprising five NFkB sites combined with the proximal ELAM-1 promoter. TLR signaling leads to the translocation of NFkB and activation of the promoter results in expression of the SEAP gene. TLR7-specific activation was assessed by determining the level of SEAP produced following overnight incubation of the cells at 37° C. with the standard compound in the presence of 0.1% (v/v) dimethylsulfoxide (DMSO). Concentration dependent induction of SEAP production by compounds was expressed as the concentration of compound which produced half of the maximal level of SEAP induction for that compound (EC50).

For the next assay, the target named is human TLR8 (Homo sapiens (Human), UniProt Q9NR97). Nature of the assay: Human TLR8 assay (TLR8/NF-kB/SEAPorter HEK 293 Cell Line). It is filed as cell-based. The settings on record: SEAP induction, overnight incubation at 37° C., 0.1% DMSO; read-out: TLR8 pEC50 (converted). The source says:
TLR8/NF-kB/SEAPorter™ HEK 293 Cell Line (Imgenex Corporation) is a stably co-transfected cell line which expresses full-length human TLR8 and the secreted alkaline phosphatase (SEAP) reporter gene under the transcriptional control of an NF-κB response element. TLR8 expression in this cell line has been tested by flow cytometry. Transfectants with stable expression were selected using the antibiotic blasticidin and geneticin. TLR signaling leads to the translocation of NF-κB and activation of the promoter results in expression of the SEAP gene. TLR8-specific activation was assessed by determining the level of SEAP produced following overnight incubation of the cells at 37° C. with the standard compound in the presence of 0.1% (v/v) dimethylsulfoxide (DMSO). Concentration dependent induction of SEAP production by compounds was expressed as the concentration of compound which produced half of the maximal level of SEAP induction for that compound (EC50).

In another assay the target is hERG potassium channel (Homo sapiens (Human), UniProt Q12809). Nature of the assay: hERG Analysis - Method 2 (QPATCH HT, CHO-hERG cells). Particulars: half-maximal inhibition concentration, 22±2° C. It is filed as cell-based. On the procedure: The hERG potassium current was measured in a hERG-stably-expressing Chinese hamster ovary K1 (CHO) cells. The experiments were performed using an automated planar patch-clamp system QPATCH HT (Sophion Bioscience A/S). The application of pressure for forming gigaseals and whole-cell patch clamp configuration were established using the QPATCH assay software. Patch-clamp experiments were performed in voltage-clamp mode and whole-cell currents were recorded from individual cells. The following stimulation protocol was applied to investigate the effects of compounds on hERG potassium channel: The membrane potential was held at −80 mV and repetitively (every 15 s) depolarized to +20 mV for 5 s after the pulse to −50 mV for 20 ms served to define the baseline, followed by repolarizing step to −50 mV for 5 s to evaluate of the tail current amplitude. Experiments were conducted at room temperature (22±2° C.).
Effects of compounds were determined from cumulative applications of increasing 4 concentrations and calculated as percent of blocked current. The data points were fitted with Hill equation to calculate half-maximal inhibition concentrations. The test solution includes: Extracellular solution (mM): 2 mM of CaCl2, 1 mM of MgCl2, 10 mM of HEPES, 4 mM of KCl, 145 mM of NaCl, and 10 mM of Glucose; and Intracellular solution (mM): 5.4 mM of CaCl2, 1.8 mM of MgCl2, 10 mM of HEPES, 31 mM of KOH, 10 mM of EGTA, 120 mM of KCl, and 4 mM of ATP.
On the technique in general: Block of hERG is tested as a sign of cardiac risk.

The subject of the next assay is Renca mouse tumour cells. Description: Tumour growth studies in Renca, a murine syngeneic renal carcinoma tumour model. The settings on record: Balb/C mice, 3 mg/kg once a week p.o. on days 1, 8, 15; vs 0.5% methylcellulose; FIG. 10. The format is in vivo. On the procedure: Experiments were conducted on female mice (Balb/C genotype, at least 5 weeks old). Renca mouse tumour cells (Cancer Chemother Pharmacol. 1995; 36 (1): 7-12) were kindly provided by Dr. T. Fujioka at Department of Urology, Iwate Medical University School of Medicine. Renca mouse tumour cells (5×10^4) were implanted subcutaneously in the flank of mice on day 0. Mice were treated with either drug vehicle (0.5% methylcellulose), the compound of Example 3 (0.3 mg/kg once a week) or the compound of Example 4 (3 mg/kg once a week) administered orally (p. o.) on days 1, 8, and 15. Tumour volumes were assessed at least twice weekly by bilateral vernier caliper measurements.
Tumour growth inhibition from the start of treatment was assessed by comparison of the differences in tumour growth rate between control and the compound of Example 3 treated groups, as shown in FIG. 9.
Tumour growth inhibition from the start of treatment was assessed by comparison of the differences in tumour growth rate between control and the compound of the Example 4 treated groups, as shown in FIG. 10.

The test system of another assay is CT26 mouse tumour cells. Nature of the assay: Survival studies in CT26, a murine syngeneic colon carcinoma tumour model. Particulars: Balb/C mice; RT 2Gy x5 plus 5 mg/kg once a week i.v.; vs control or RT; FIG. 13. The format is in vivo. On the procedure: Experiments were conducted on female mice (Balb/C genotype, at least 5 weeks old). CT26 mouse tumour cells (CRL-2638) were purchased from ATCC. CT26 mouse tumour cells (1×10^6) were implanted subcutaneously in the flank of mice on day 0. Mice in radiotherapy alone (RT) group and combination group were anesthetized and received radiation therapy (2Gy) at days 7, 8, 9, 10, and 11. Mice in combination group were also treated with a compound of Example 3 (30 mg/kg once a week) administered orally (p.o.) or Example 4 (5 mg/kg once a week) administered intravenously (i. v.) on days 7, 14, 22, and 27. Tumour volumes were assessed at least twice weekly by bilateral vernier caliper measurements. Survival period was determined by the time taken for tumours to reach 4 times the volume at the time of treatment.

A further assay addresses hERG ion channel (Homo sapiens (Human), UniProt Q12809). Nature of the assay: hERG Analysis - Method 1 (IONWORKS HT, CHO-hERG cells). The format is cell-based. The settings on record: ~21° C. On the procedure: The hERG-expressing Chinese hamster ovary K1 (CHO) cells described by (Persson, Carlsson, Duker, & Jacobson, 2005) were grown to semi-confluence at 37° C. in a humidified environment (5% CO2) in F-12 Ham medium containing L-glutamine, 10% foetal calf serum (FCS) and 0.6 mg/mL hygromycin (all available from Sigma-Aldrich). Prior to use, the monolayer was washed using a pre-warmed (37° C.) 3 mL aliquot of Versene 1:5,000 (Invitrogen) After aspiration of this solution the flask was incubated at 37° C. in an incubator with a further 2 mL of Versene 1:5,000 for a period of 6 minutes. Cells were then detached from the bottom of the flask by gentle tapping and 10 mL of Dulbecco's Phosphate-Buffered Saline containing calcium (0.9 mM) and magnesium (0.5 mM) (PBS; Invitrogen) was then added to the flask and aspirated into a 15 mL centrifuge tube prior to centrifugation (50 g, for 4 mins). The resulting supernatant was discarded and the pellet gently re-suspended in 3 mL of PBS. A 0.5 mL aliquot of cell suspension was removed and the number of viable cells (based on trypan blue exclusion) was determined in an automated reader (Cedex; Innovatis) so that the cell re-suspension volume can be adjusted with PBS to give the desired final cell concentration. It is the cell concentration at this point in the assay that is quoted when referring to this parameter. CHO-Kv1.5 cells, which were used to adjust the voltage offset on IONWORKS™ HT, were maintained and prepared for use in the same way.
The principles and operation of this device have been described by (Schroeder, Neagle, Trezise, & Worley, 2003). Briefly, the technology is based on a 384-well plate (PATCHPLATE™) in which a recording was attempted in each well by using suction to position and hold a cell on a small hole separating two isolated fluid chambers. Once sealing had taken place, the solution on the underside of the PATCHPLATE™ was changed to one containing amphotericin B. This permeablises the patch of cell membrane covering the hole in each well and, in effect, allowed a perforated, whole-cell patch clamp recording to be made.
A β-test IONWORKS™ HT from Essen Instrument was used. […] (˜21° C.), as follows. The reservoir in the “Buffer” position was loaded with 4 mL of PBS and that in the “Cells” position with the CHO-hERG cell suspension described above. A 96-well plate (V-bottom, Greiner Bio-one) containing the compounds to be tested (at 3-fold above their final test concentration) was placed in the “Plate 1” position and a PATCHPLATE™ was clamped into the PATCHPLATE™ station. […]

Sequence of human TLR8 (Q9NR97 27-1041): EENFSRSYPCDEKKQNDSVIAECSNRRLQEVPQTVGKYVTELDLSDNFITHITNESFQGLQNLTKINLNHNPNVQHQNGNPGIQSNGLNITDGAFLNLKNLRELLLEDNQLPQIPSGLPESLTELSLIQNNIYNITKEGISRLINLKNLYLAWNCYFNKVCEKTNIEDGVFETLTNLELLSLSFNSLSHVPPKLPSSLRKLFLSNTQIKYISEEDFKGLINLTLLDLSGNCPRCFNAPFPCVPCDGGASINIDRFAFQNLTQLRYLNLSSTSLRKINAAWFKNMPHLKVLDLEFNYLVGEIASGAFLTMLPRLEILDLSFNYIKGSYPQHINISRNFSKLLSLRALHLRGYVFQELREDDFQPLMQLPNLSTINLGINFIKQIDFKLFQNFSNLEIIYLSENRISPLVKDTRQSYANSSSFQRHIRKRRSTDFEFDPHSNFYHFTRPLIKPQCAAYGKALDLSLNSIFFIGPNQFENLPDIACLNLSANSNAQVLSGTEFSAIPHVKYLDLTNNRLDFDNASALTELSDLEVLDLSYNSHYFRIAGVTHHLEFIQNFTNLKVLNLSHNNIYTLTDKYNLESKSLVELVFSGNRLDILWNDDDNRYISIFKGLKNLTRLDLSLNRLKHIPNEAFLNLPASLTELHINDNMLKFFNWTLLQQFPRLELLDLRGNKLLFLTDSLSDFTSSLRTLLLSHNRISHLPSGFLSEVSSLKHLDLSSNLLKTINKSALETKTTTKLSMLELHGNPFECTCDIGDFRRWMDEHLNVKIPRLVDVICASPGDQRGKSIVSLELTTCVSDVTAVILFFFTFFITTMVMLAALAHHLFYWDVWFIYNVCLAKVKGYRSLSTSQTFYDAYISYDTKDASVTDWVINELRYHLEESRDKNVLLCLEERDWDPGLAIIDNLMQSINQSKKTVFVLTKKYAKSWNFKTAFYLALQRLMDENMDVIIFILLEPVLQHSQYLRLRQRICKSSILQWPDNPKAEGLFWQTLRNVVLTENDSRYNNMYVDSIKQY
Sequence of human TLR7 (Q9NYK1 27-1049): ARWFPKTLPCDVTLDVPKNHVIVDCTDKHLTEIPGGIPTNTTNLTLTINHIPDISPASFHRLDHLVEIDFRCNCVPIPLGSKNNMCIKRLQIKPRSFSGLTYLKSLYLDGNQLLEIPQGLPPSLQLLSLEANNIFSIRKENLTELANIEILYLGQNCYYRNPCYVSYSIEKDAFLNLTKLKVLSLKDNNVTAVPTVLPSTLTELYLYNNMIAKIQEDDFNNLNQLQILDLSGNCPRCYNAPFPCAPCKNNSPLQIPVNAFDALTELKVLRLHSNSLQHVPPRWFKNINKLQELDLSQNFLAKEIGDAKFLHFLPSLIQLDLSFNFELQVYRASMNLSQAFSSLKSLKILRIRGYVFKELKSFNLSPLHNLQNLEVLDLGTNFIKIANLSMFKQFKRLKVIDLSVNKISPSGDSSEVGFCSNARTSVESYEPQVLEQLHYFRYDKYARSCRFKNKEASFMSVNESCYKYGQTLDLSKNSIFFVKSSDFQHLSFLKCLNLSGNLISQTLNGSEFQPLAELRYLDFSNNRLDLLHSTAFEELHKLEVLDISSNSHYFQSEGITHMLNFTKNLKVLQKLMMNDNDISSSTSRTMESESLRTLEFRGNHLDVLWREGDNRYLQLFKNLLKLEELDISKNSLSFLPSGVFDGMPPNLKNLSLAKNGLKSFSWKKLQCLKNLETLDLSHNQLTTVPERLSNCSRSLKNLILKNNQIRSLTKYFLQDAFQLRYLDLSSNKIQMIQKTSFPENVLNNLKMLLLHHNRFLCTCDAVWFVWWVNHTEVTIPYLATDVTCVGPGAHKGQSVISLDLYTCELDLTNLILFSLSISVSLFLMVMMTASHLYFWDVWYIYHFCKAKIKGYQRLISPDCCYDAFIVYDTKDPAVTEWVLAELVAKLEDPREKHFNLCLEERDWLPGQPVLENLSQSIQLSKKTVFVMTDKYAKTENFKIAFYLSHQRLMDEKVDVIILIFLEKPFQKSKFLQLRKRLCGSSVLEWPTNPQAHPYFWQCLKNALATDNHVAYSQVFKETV
Sequence of hERG potassium channel (Q12809 whole entry): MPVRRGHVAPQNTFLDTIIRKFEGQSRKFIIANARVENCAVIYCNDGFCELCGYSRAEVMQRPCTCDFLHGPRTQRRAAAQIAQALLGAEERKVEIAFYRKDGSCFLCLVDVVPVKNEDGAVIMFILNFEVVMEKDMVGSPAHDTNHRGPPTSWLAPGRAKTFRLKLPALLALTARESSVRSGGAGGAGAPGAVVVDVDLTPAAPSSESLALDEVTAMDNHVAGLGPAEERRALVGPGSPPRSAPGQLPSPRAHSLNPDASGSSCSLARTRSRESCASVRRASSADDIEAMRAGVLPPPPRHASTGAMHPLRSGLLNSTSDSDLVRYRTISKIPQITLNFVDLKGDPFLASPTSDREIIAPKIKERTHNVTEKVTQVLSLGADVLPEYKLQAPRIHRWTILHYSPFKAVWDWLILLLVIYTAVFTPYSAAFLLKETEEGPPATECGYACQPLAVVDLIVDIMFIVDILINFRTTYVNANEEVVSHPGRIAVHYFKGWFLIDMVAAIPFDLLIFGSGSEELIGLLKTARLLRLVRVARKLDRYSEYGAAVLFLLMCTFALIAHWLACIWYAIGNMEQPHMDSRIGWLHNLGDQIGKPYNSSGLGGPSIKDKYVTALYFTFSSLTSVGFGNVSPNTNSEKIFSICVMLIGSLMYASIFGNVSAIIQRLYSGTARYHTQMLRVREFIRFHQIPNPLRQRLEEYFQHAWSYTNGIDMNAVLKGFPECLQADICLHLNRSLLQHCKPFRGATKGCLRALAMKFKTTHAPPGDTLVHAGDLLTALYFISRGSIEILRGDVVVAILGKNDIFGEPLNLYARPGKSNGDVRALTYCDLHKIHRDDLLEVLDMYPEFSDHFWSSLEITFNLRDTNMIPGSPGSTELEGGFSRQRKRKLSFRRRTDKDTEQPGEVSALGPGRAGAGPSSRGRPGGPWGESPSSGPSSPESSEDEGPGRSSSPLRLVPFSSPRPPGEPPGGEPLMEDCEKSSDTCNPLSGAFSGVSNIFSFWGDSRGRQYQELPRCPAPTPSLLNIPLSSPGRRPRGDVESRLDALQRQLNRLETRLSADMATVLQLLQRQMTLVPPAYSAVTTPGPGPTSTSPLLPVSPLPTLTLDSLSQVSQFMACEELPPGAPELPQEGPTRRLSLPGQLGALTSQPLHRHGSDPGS
Sequence of hERG ion channel (Q12809 whole entry): as above

As usually defined, the IC50 is the concentration that inhibits the measured activity by half. A low value points to greater potency in that assay. In the case of `CCC[C@@H](CCO)Nc1nc(N)nc(C)c1Cc1ccc(CN(CC(=O)O)CC(F)(F)F)cc1OC` [Example 4, (S)-2-((4-((2-amino-4-(1-hydroxyhexan-3-ylamino)-6-methylpyrimidin-5-yl)methyl)-3-methoxybenzyl)(2,2,2-trifluoroethyl)amino)acetic acid], the EC50 on human TLR7 is 0.1 µM; at human TLR8 it was > 10 µM. Also, at hERG potassium channel, the IC50 is > 10 µM. The Tumour growth inhibition result with Renca mouse tumour cells was “inhibited tumour growth”. Moreover, the “Survival period (time for tumours to reach 4 times the volume at treatment)” value with CT26 mouse tumour cells is given as “survived significantly longer”.

As to `CCC[C@@H](CCO)Nc1nc(N)nc(C)c1Cc1ccc(CN(CCC(=O)O)CC(F)F)cc1OC` [Example 6, (S)-3-((4-((2-amino-4-(1-hydroxyhexan-3-ylamino)-6-methylpyrimidin-5-yl)methyl)-3-methoxybenzyl)(2,2-difluoroethyl)amino)propanoic acid], the figures for the EC50 on human TLR7 and at human TLR8 were 0.251 µM and > 10 µM, respectively. The IC50 against hERG ion channel is > 33 µM; at hERG potassium channel, > 10 µM.
